According to patent EP4752152A1, “STEROID COMPOUND, AND PREPARATION METHOD THEREFOR AND USE THEREOF” (Cholesgen (Shanghai) Co.Ltd., priority 2023, dated 2025):
Converted amounts (≈) assume the structure as drawn.

What was measured:
[1] = Metabolic stability experiment of mouse liver microsomes; format: in vitro ADME
Method: PB solution (100 mM), MgCl2 solution (300 mM), NADPH solution (2.04 mM), and mouse liver microsome (SHQY catalog number: M1000, batch number: 2110330) solution (1.00 mg/mL) were prepared respectively. […] Then, 100 µL of mouse liver microsome solution was added to a 96-well sample plate. For the 0 min sample, acetonitrile solution containing the internal standard was first added; then, 2 µL of 100 µM working solution was added; followed by the addition of 98 µL of pre-warmed 2.04 mM NADPH at 37°C. For the 5 min, 15 min, 30 min, 45 min, and 60 min samples, 2 µL of 100 µM working solution was first added; followed by the addition of 98 µL of pre-warmed 2.04 mM NADPH at 37°C to initiate the reaction; upon reaching the respective time points, a solution of acetonitrile containing the internal standard was added to terminate the reaction. For the NCF60 sample, 2 µL of 100 µM working solution was first added; followed by the addition of 98 µL of pre-warmed PB at 37°C to initiate the reaction; upon reaching the respective time points, a solution of acetonitrile containing the internal standard was added to terminate the reaction. During the experiment, all samples were incubated in a 37°C water bath. All samples were shaken on an oscillator at 800 rpm for 10 min, then centrifuged at 3200 g for 20 min. The supernatant was aspirated, diluted with deionized water at the corresponding ratio, and analyzed by LC-MS/MS. The remaining percentage of the compound at each time point was obtained by dividing the peak area ratio of the compound at 5, 15, 30, 45, and 60 min by the peak area ratio at 0 min. The half-life (T1/2) of the compound was then calculated using Excel. Table 2: Mouse liver microsome stability results of compounds from some examples

SREBP pathway = test: SREBP luciferase reporter gene system (SRE-luciferase assay); format: cell-based, human; details: Homo sapiens, Huh-7, 16 h, Huh-7/SRE-luc cells, sterol-deficient medium, 0.01-10 µM
Outline: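 Huh-7 cells stably carrying LDLR promoter-luciferase plus GFP were treated 16 h in sterol-deficient medium (5% lipoprotein-deficient serum, 2 µM lovastatin, 10 µM mevalonic acid) at 0.01–10 µM. Luciferase/GFP ratio measured as pathway activity; inhibition versus DMSO fitted to a four-parameter model for IC50.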

[2] = tested on: Fatty Acid Synthase (FASN) gene; test: Inhibition of FASN gene expression (qPCR) in Huh-7 cells; format: cell-based, human; details: Homo sapiens, Huh-7, 16 h, Huh-7 cells, starvation medium, 16 hours, qPCR; class symbols; read-out: FASN IC50
Outline: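 Huh-7 cells switched to starvation DMEM (5% LPDS, 2 µM lovastatin, 10 µM mevalonate) and treated 16 h with compound, top 3000 nM, 3-fold dilutions, 5 concentrations. FASN mRNA by RT-qPCR; inhibition relative to DMSO, IC50 from four-parameter fit.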

[3] = Solubility in fasted-state simulated intestinal fluid (FaSSIF); format: physicochemical; details: FaSSIF, pH 6.5, fassif, kinetic from dmso stock, FaSSIF pH 6.5, 300 µM sample solution, room temperature
Outline: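 Compound from 10.0 mM DMSO stock added to FaSSIF (phosphate/NaCl buffer, pH 6.5) at 300 µM nominal, shaken 1 h at room temperature, 1000 rpm. After centrifugation, supernatant concentration quantified by LC-MS/MS.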

SMILES | half-life at 1 µM [1] [h] | IC50 (SREBP pathway) [µM] | IC50 [2] [µM] | solubility at 1 h [3] [µM]
COc1cccc(F)c1[C@H](O)CCC[C@@H](C)[C@H]1CC[C@H]2[C@H]3[C@H](CC[C@]12C)[C@@]1(C)CC[C@H](O)[C@H](O)[C@@H]1CC3(F)F [Compound 128, (1R,3aS,3bS,5aR,6R,7S,9aR,9bS,11aR)-4,4-difluoro-1-[(2R,6R)-6-(2-fluoro-6-methoxyphenyl)-6-hydroxyhexan-2-yl]-9a,11a-dimethylhexadecahydro-1H-cyclopenta[1,2-a]phenanthrene-6,7-diol] | > 3.1 | 0.139 | 0.2 to 0.5 | 199 (≈ 110 µg/mL)
COc1cc(F)ccc1C(O)CCC[C@@H](C)[C@H]1CC[C@H]2[C@H]3[C@H](CC[C@]12C)[C@@]1(C)CC[C@H](O)[C@H](O)[C@@H]1CC3(F)F (stereo partly drawn) [Compound 35, (1R,3aS,3bS,5aR,6R,7S,9aR,9bS,11aR)-4,4-difluoro-1-[(2R)-6-(4-fluoro-2-methoxyphenyl)-6-hydroxyhexan-2-yl]-9a,11a-dimethylhexadecahydro-1H-cyclopenta[1,2-a]phenanthrene-6,7-diol] | > 3.1 | 0.051 | 0.2 to 0.5 | 160 (≈ 88.4 µg/mL)
COc1cc(F)ccc1[C@@H](O)CCC[C@@H](C)[C@H]1CC[C@H]2[C@H]3[C@H](CC[C@]12C)[C@@]1(C)CC[C@H](O)[C@H](O)[C@@H]1CC3(F)F [Compound 140, (1R,3aS,3bS,5aR,6R,7S,9aR,9bS,11aR)-4,4-difluoro-1-[(2R,6S)-6-(4-fluoro-2-methoxyphenyl)-6-hydroxyhexan-2-yl]-9a,11a-dimethylhexadecahydro-1H-cyclopenta[1,2-a]phenanthrene-6,7-diol] | 5.35 | 0.11 | < 0.2 | 178 (≈ 98.4 µg/mL)
COc1cccc(F)c1C(O)CCC[C@@H](C)[C@H]1CC[C@H]2[C@H]3[C@H](CC[C@]12C)[C@@]1(C)CC[C@H](O)[C@H](O)[C@@H]1CC3(F)F (stereo partly drawn) [Compound 49, (1R,3aS,3bS,5aR,6R,7S,9aR,9bS,11aR)-4,4-difluoro-1-[(2R)-6-(2-fluoro-6-methoxyphenyl)-6-hydroxyhexan-2-yl]-9a,11a-dimethylhexadecahydro-1H-cyclopenta[1,2-a]phenanthrene-6,7-diol] | 1.88 | 0.06 | 0.2 to 0.5 | 281 (≈ 155 µg/mL)
COc1cc(F)ccc1[C@H](O)CCC[C@@H](C)[C@H]1CC[C@H]2[C@H]3[C@H](CC[C@]12C)[C@@]1(C)CC[C@H](O)[C@H](O)[C@@H]1CC3(F)F [Compound 141, (1R,3aS,3bS,5aR,6R,7S,9aR,9bS,11aR)-4,4-difluoro-1-[(2R,6R)-6-(4-fluoro-2-methoxyphenyl)-6-hydroxyhexan-2-yl]-9a,11a-dimethylhexadecahydro-1H-cyclopenta[1,2-a]phenanthrene-6,7-diol] | 4.85 | 0.017 | < 0.2 | 150 (≈ 82.9 µg/mL)
COc1ncccc1C(O)CCC[C@@H](C)[C@H]1CC[C@H]2[C@H]3[C@H](CC[C@]12C)[C@@]1(C)CC[C@H](O)[C@H](O)[C@@H]1CC3(F)F (stereo partly drawn) [Compound 81, (1R,3aS,3bS,5aR,6R,7S,9aR,9bS,11aR)-4,4-difluoro-1-[(2R)-6-(2-methoxypyridin-3-yl)-6-hydroxyhexan-2-yl]-9a,11a-dimethylhexadecahydro-1H-cyclopenta[1,2-a]phenanthrene-6,7-diol] | 1.91 | 0.11 | < 0.2 | 279 (≈ 150 µg/mL)
COc1cccc(C(O)CCC[C@@H](C)[C@H]2CC[C@H]3[C@H]4[C@H](CC[C@]23C)[C@@]2(C)CC[C@H](O)[C@H](O)[C@@H]2CC4(F)F)c1F (stereo partly drawn) [Compound 63, (1R,3aS,3bS,5aR,6R,7S,9aR,9bS,11aR)-4,4-difluoro-1-[(2R)-6-(2-fluoro-3-methoxyphenyl)-6-hydroxyhexan-2-yl]-9a,11a-dimethylhexadecahydro-1H-cyclopenta[1,2-a]phenanthrene-6,7-diol] | > 3.08 | 0.121 | < 0.2 | 147 (≈ 81.1 µg/mL)
COc1cccc(F)c1[C@@H](O)CCC[C@@H](C)[C@H]1CC[C@H]2[C@H]3[C@H](CC[C@]12C)[C@@]1(C)CC[C@H](O)[C@H](O)[C@@H]1CC3(F)F [Compound 127, (1R,3aS,3bS,5aR,6R,7S,9aR,9bS,11aR)-4,4-difluoro-1-[(2R,6S)-6-(2-fluoro-6-methoxyphenyl)-6-hydroxyhexan-2-yl]-9a,11a-dimethylhexadecahydro-1H-cyclopenta[1,2-a]phenanthrene-6,7-diol] | 1.87 | 0.07 | 0.2 to 0.5 | 209 (≈ 116 µg/mL)
COc1ccccc1C(O)CCC[C@@H](C)[C@H]1CC[C@H]2[C@H]3[C@H](CC[C@]12C)[C@@]1(C)CC[C@H](O)[C@H](O)[C@@H]1CC3(F)F (stereo partly drawn) [Compound 37, (1R,3aS,3bS,5aR,6R,7S,9aR,9bS,11aR)-4,4-difluoro-1-[(2R)-6-hydroxy-6-(2-methoxyphenyl)hexan-2-yl]-9a,11a-dimethylhexadecahydro-1H-cyclopenta[1,2-a]phenanthrene-6,7-diol] | 2.19 | 0.03 | 0.2 to 0.5 | 207 (≈ 111 µg/mL)
COc1cc(F)cc(F)c1C(O)CCC[C@@H](C)[C@H]1CC[C@H]2[C@H]3[C@H](CC[C@]12C)[C@@]1(C)CC[C@H](O)[C@H](O)[C@@H]1CC3(F)F (stereo partly drawn) [Compound 98, (1R,3aS,3bS,5aR,6R,7S,9aR,9bS,11aR)-1-[(2R)-6-(4,6-difluoro-2-methoxyphenyl)-6-hydroxyhexan-2-yl]-4,4-difluoro-9a,11a-dimethylhexadecahydro-1H-cyclopenta[1,2-a]phenanthrene-6,7-diol] | 4.17 | 0.095 | < 0.2 | 199 (≈ 114 µg/mL)
COc1nc(F)ccc1C(O)CCC[C@@H](C)[C@H]1CC[C@H]2[C@H]3[C@H](CC[C@]12C)[C@@]1(C)CC[C@H](O)[C@H](O)[C@@H]1CC3(F)F (stereo partly drawn) [Compound 108, (1R,3aS,3bS,5aR,6R,7S,9aR,9bS,11aR)-4,4-difluoro-1-[(2R)-6-(6-fluoro-2-methoxypyridin-3-yl)-6-hydroxyhexan-2-yl]-9a,11a-dimethylhexadecahydro-1H-cyclopenta[1,2-a]phenanthrene-6,7-diol] | 3.08 | 0.0359 | < 0.2 | 303 (≈ 168 µg/mL)
